Results from PMC9403976, “Elucidating the path to Plasmodium prolyl-tRNA synthetase inhibitors that overcome halofuginone resistance” (Nature Communications, 2022).
“And” between values parts separate entries of the source, which are not always exact repeats. Equal entries are not always repeated. Where two headings read alike, the source gives them in different places.

Legend:
P. falciparum Dd2-2D4 = assay: P. falciparum asexual blood stage (ABS) growth assay, SYBR Green, 72 h, wild-type parasites; type: cell-based, Plasmodium falciparum; details: Plasmodium falciparum, DD2; SI Fig 16b; values on -log scale; read-out: ABS - Dd2-2D4 (converted)
[1] = tested on: halofuginone-induced P. falciparum (elevated proline homeostasis); assay: P. falciparum ABS growth assay, SYBR Green, 72 h, halofuginone-induced parasites; type: cell-based, Plasmodium falciparum; details: for parasite growth, dose-response point: Halofuginone-Induced (HFG-Induced)
In short: (§1)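 Asexual blood-stage Dd2 parasites, 1% parasitemia/1% hematocrit, RPMI + 0.5% Albumax; triplicate dose-response, 72 h. Readout SYBR Green 1 fluorescence. Controls: 10 μM dihydroartemisinin (kill), no compound (growth). EC50 values determined.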

[2] = tested on: HFGR-I P. falciparum (elevated proline homeostasis and PfcProRS^L482H); assay: P. falciparum ABS growth assay, SYBR Green, 72 h, HFGR-I parasites; type: cell-based, Plasmodium falciparum; details: HFGR-I
In short: as §1

PfcProRS = target: T1, PfcProRS (Plasmodium falciparum, UniProt Q8I5R7); type: binding; details: for Normalized response, dose-response replicates (SI Fig 14): replicates 1-3, listed as MAT345 (30)
T1 construct: made in house; host or cells: E. coli SoluBL-21

HsProRS = HsProRS (Homo sapiens, UniProt P07814); assay: TR-FRET ligand displacement assay with tracer MAT379 (CoraFluor-1-Halo and anti-His6 antibody formats); type: binding; parameters: made in house; host or cells: E. coli SoluBL-21; details: for normalized TR-FRET signal (dose-response replicates): SI Fig 17a
[3] = Log[inhibitor] (M) -5.000, series r16-r27

Chain of HsProRS (P07814 996-1512): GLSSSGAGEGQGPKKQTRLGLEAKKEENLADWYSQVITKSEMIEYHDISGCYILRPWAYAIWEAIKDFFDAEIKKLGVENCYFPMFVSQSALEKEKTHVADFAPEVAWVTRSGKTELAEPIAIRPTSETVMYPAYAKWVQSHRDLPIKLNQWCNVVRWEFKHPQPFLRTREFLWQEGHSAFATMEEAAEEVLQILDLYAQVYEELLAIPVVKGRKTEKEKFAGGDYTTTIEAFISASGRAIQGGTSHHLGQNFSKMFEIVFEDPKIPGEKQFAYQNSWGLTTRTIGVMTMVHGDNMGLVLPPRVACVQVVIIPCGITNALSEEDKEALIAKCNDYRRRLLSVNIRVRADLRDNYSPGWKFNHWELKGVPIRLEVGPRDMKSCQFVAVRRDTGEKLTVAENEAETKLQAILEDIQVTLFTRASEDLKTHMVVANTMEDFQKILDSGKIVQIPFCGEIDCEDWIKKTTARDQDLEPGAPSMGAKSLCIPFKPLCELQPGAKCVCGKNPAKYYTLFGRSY
T1 sequence (Q8I5R7 249-746): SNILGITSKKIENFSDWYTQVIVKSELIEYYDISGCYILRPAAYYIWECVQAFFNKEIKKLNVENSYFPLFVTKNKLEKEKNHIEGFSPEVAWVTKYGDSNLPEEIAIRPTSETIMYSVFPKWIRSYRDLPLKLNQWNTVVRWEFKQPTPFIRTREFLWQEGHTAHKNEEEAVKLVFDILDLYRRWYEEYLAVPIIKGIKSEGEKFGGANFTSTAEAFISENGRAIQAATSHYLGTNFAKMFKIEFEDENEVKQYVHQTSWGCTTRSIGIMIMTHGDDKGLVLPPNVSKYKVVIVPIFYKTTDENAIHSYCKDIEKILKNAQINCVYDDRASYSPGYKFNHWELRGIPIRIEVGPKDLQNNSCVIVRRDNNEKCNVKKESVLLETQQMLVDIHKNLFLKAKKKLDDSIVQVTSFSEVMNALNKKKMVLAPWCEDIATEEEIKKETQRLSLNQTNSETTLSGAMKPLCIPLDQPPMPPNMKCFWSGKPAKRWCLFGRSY

## O=C(NC1Cc2ccccc2C1)c1nccnc1NC(=O)N1CCC(CNC(=O)[C@@H]2CCCN2)CC1 [MAT345]
P. falciparum Dd2-2D4
  EC50: 249 nM
[1]; [3]
  parasite growth, dose-response point: 31 and 33
[1]; Log[inhibitor] (M) -5.408
  parasite growth, dose-response point: 83 and 82 and 78
[1]; Log[inhibitor] (M) -5.816
  parasite growth, dose-response point: 97 and 93 and 100
[1]; Log[inhibitor] (M) -6.222
  parasite growth, dose-response point: 102 and 100
[1]; Log[inhibitor] (M) -6.638
  parasite growth, dose-response point: 103 and 100 and 98
[1]; Log[inhibitor] (M) -7.046
  parasite growth, dose-response point: 102 and 103
[1]; Log[inhibitor] (M) -7.450
  parasite growth, dose-response point: 91 and 97
[1]; Log[inhibitor] (M) -7.854
  parasite growth, dose-response point: 96 and 99
[1]; Log[inhibitor] (M) -8.260
  parasite growth, dose-response point: 97 and 101
[1]; Log[inhibitor] (M) -8.699
  parasite growth, dose-response point: 95 and 97 and 96
[1]; Log[inhibitor] (M) -9.000
  parasite growth, dose-response point: 98 and 96
[1]; Log[inhibitor] (M) -9.488
  parasite growth, dose-response point: 97 and 99
[1]; vs wild-type Dd2-2D4
  fold decreased activity in halofuginone-induced and HFGR-I parasites: 20-to-40 fold
[2]; [3]
  parasite growth, dose-response point: 34 and 31 and 27
[2]; Log[inhibitor] (M) -5.408
  parasite growth, dose-response point: 80 and 82 and 78
[2]; Log[inhibitor] (M) -5.816
  parasite growth, dose-response point: 93 and 92 and 94
[2]; Log[inhibitor] (M) -6.222
  parasite growth, dose-response point: 97 and 95
[2]; Log[inhibitor] (M) -6.638
  parasite growth, dose-response point: 101 and 98 and 100
[2]; Log[inhibitor] (M) -7.046
  parasite growth, dose-response point: 98 and 100
[2]; Log[inhibitor] (M) -7.450
  parasite growth, dose-response point: 89 and 95 and 94
[2]; Log[inhibitor] (M) -7.854
  parasite growth, dose-response point: 93 and 91 and 94
[2]; Log[inhibitor] (M) -8.260
  parasite growth, dose-response point: 90 and 93 and 96
[2]; Log[inhibitor] (M) -8.699
  parasite growth, dose-response point: 97 and 94 and 92
[2]; Log[inhibitor] (M) -9.000
  parasite growth, dose-response point: 97 and 96 and 95
[2]; Log[inhibitor] (M) -9.488
  parasite growth, dose-response point: 95 and 102 and 96
PfcProRS; Log[inhibitor] (M) -5.041
  Normalized response, dose-response replicates (SI Fig 14): 4.37E-03 and 8.51E-02 and 8.45E-02
PfcProRS; Log[inhibitor] (M) -5.342
  Normalized response, dose-response replicates (SI Fig 14): 1.11E-01 and 8.97E-02 and 2.09E-01
PfcProRS; Log[inhibitor] (M) -5.642
  Normalized response, dose-response replicates (SI Fig 14): 2.13E-01 and 1.76E-01 and 2.03E-01
PfcProRS; Log[inhibitor] (M) -5.943
  Normalized response, dose-response replicates (SI Fig 14): 2.11E-01 and 3.53E-01 and 2.89E-01
PfcProRS; Log[inhibitor] (M) -6.244
  Normalized response, dose-response replicates (SI Fig 14): 5.69E-01 and 4.73E-01 and 4.91E-01
PfcProRS; Log[inhibitor] (M) -6.555
  Normalized response, dose-response replicates (SI Fig 14): 6.49E-01 and 6.64E-01 and 6.15E-01
PfcProRS; Log[inhibitor] (M) -6.837
  Normalized response, dose-response replicates (SI Fig 14): 7.67E-01 and 7.12E-01 and 8.75E-01
PfcProRS; Log[inhibitor] (M) -7.149
  Normalized response, dose-response replicates (SI Fig 14): 8.93E-01 and 9.71E-01 and 9.69E-01
PfcProRS; Log[inhibitor] (M) -7.447
  Normalized response, dose-response replicates (SI Fig 14): 1.04E+00 and 1.05E+00 and 9.75E-01
PfcProRS; Log[inhibitor] (M) -7.755
  Normalized response, dose-response replicates (SI Fig 14): 9.28E-01 and 9.14E-01 and 8.72E-01
PfcProRS; Log[inhibitor] (M) -8.041
  Normalized response, dose-response replicates (SI Fig 14): 1.06E+00 and 9.79E-01 and 1.02E+00
PfcProRS; Log[inhibitor] (M) -8.372
  Normalized response, dose-response replicates (SI Fig 14): 9.49E-01 and 9.57E-01 and 1.06E+00
PfcProRS; Log[inhibitor] (M) -8.615
  Normalized response, dose-response replicates (SI Fig 14): 1.07E+00 and 9.05E-01 and 1.02E+00
PfcProRS; Log[inhibitor] (M) -8.916
  Normalized response, dose-response replicates (SI Fig 14): 1.03E+00 and 9.82E-01 and 1.08E+00
PfcProRS; Log[inhibitor] (M) -9.217
  Normalized response, dose-response replicates (SI Fig 14): 9.85E-01 and 1.06E+00 and 9.97E-01
PfcProRS; SI Fig 16a, values on -log scale
  PfcProRS -- best Kd: 7.445
HsProRS; HsProRS (KD [nM]) + proline, 100 μM proline, 250 nM MAT379
  Kd: 282 nM
HsProRS; HsProRS - best Kd, SI Fig 16a, values on -log scale
  Kd: 140 nM
HsProRS; Log[inhibitor] (M) -5.642
  normalised signal, dose-response point (Fig 4d): 3.24E-02 and 2.70E-02 and 2.05E-02
  normalized TR-FRET signal (dose-response replicates): 9.59E-02 and 6.70E-02 and 9.33E-02
HsProRS; Log[inhibitor] (M) -6.244
  normalised signal, dose-response point (Fig 4d): 1.89E-01 and 2.26E-01 and 2.85E-01
  normalized TR-FRET signal (dose-response replicates): 2.09E-01 and 2.42E-01 and 2.50E-01
HsProRS; Log[inhibitor] (M) -6.555
  normalised signal, dose-response point (Fig 4d): 3.68E-01 and 3.01E-01 and 3.10E-01
  normalized TR-FRET signal (dose-response replicates): 3.66E-01 and 3.52E-01 and 3.76E-01
HsProRS; Log[inhibitor] (M) -6.837
  normalised signal, dose-response point (Fig 4d): 6.02E-01 and 6.04E-01 and 4.91E-01
  normalized TR-FRET signal (dose-response replicates): 5.21E-01 and 5.37E-01 and 4.85E-01
HsProRS; Log[inhibitor] (M) -7.149
  normalised signal, dose-response point (Fig 4d): 6.76E-01 and 6.99E-01 and 6.39E-01
  normalized TR-FRET signal (dose-response replicates): 7.07E-01 and 6.82E-01 and 6.73E-01
HsProRS; Log[inhibitor] (M) -7.447
  normalised signal, dose-response point (Fig 4d): 8.48E-01 and 8.28E-01 and 9.00E-01
  normalized TR-FRET signal (dose-response replicates): 7.81E-01 and 8.42E-01 and 8.20E-01
HsProRS; Log[inhibitor] (M) -7.755
  normalised signal, dose-response point (Fig 4d): 9.14E-01 and 8.69E-01 and 1.05E+00
  normalized TR-FRET signal (dose-response replicates): 9.07E-01 and 9.27E-01 and 8.91E-01
HsProRS; Log[inhibitor] (M) -8.041
  normalised signal, dose-response point (Fig 4d): 9.90E-01 and 1.01E+00 and 9.87E-01
  normalized TR-FRET signal (dose-response replicates): 9.57E-01 and 9.29E-01 and 9.81E-01
HsProRS; Log[inhibitor] (M) -8.372
  normalised signal, dose-response point (Fig 4d): 1.02E+00 and 1.03E+00 and 9.36E-01
  normalized TR-FRET signal (dose-response replicates): 9.20E-01 and 9.69E-01 and 9.64E-01
HsProRS; Log[inhibitor] (M) -8.615
  normalised signal, dose-response point (Fig 4d): 9.70E-01 and 1.01E+00 and 1.11E+00
  normalized TR-FRET signal (dose-response replicates): 9.77E-01 and 1.00E+00 and 1.02E+00
HsProRS; Log[inhibitor] (M) -8.916
  normalised signal, dose-response point (Fig 4d): 9.07E-01 and 1.05E+00 and 9.01E-01
  normalized TR-FRET signal (dose-response replicates): 9.89E-01 and 9.48E-01 and 9.78E-01
HsProRS; Log[inhibitor] (M) -9.217
  normalised signal, dose-response point (Fig 4d): 9.78E-01 and 9.88E-01 and 9.92E-01
  normalized TR-FRET signal (dose-response replicates): 1.04E+00 (2×) and 1.05E+00
HsProRS; Log[inhibitor] (M) -5.041
  normalized TR-FRET signal (dose-response replicates): 4.56E-02 and 1.07E-02 and 1.68E-02
HsProRS; Log[inhibitor] (M) -5.342
  normalized TR-FRET signal (dose-response replicates): 5.17E-02 and 5.07E-02 and 8.15E-02
HsProRS; Log[inhibitor] (M) -5.943
  normalized TR-FRET signal (dose-response replicates): 1.49E-01 and 1.16E-01 and 1.17E-01
